Assay results taken from patent publication US20250332149A1, “PIPERIDINE COMPOUNDS AND PHARMACEUTICAL COMPOSITIONS” (Lumos Pharma, Inc., priority 2024, published 2025).

Test: Phase 1 study Part 1: plasma PK and relative bioavailability of LUM-201 tablets vs capsule
Assay type: in vivo, human
Conditions: for % AUCex, Arithmetic Mean / % AUCex, Geometric Mean / Clast, Arithmetic Mean / Clast, Geometric Mean / DNAUC0-inf, Arithmetic Mean / DNAUC0-inf, Geometric Mean / DNAUC0-last, Arithmetic Mean / DNAUC0-last, Geometric Mean / DNCmax, Arithmetic Mean / DNCmax, Geometric Mean / tlag, Median / tlast, Median / λz, Arithmetic Mean / λz, Geometric Mean / DNAUC0-inf, GLS Mean / DNAUC0-last, GLS Mean / DNCmax, GLS Mean: oral, fasted; for DNAUC0-inf, GLS Mean / DNAUC0-last, GLS Mean / DNCmax, GLS Mean: ANOVA
From the text: This study in healthy adult subjects was designed to establish the pharmacokinetic (PK) and pharmacodynamic (PD) profiles for the orally administered test product (coated mini-tablets in a capsule) and reference product (mini-tablet) to evaluate relative bioavailability in Part 1 and to evaluate the food effect on the bioavailability of test product (capsule only) in Part 2.
This was a single center, open-label, randomized, Phase 1 study in healthy adult subjects. This study consisted of 2 parts: Part 1 was a 4-sequence, 4-treatment, 4 Treatment Periods, crossover study to determine the relative bioavailability of current tablets to new capsule formulations of LUM-201; Part 2 was a 2-sequence, 2-treatment, 2 Treatment Periods, crossover study to evaluate the food effect on the bioavailability of the new capsule formulation of LUM-201. An individual subject was allowed to participate in only 1 part (Part 1 or Part 2) of the study. Forty subjects were planned and enrolled in this study. • Part 1: A total of 28 subjects were planned and enrolled in Part 1. Part 1 consisted of 4 sequences, each having 4 Treatment Periods enrolling 7 subjects (1:1:1:1 ratio). During Treatment Periods 1 through 4, each subject received 4 single oral doses of LUM-201 drug product in a randomized, crossover order. • Part 2: A total of 12 subjects were planned and enrolled in Part 2. Part 2 consisted of 2 sequences, each having 2 Treatment Periods enrolling 6 subjects (1:1 ratio). Each subject received a single oral dose of LUM-201 at each Treatment Period. During Treatment Periods 1 and 2, each subject received 2 single oral doses of LUM-201 in a randomized, crossover order. • On Day 1 of Treatment Period 1, subjects were administered the assigned treatment (A or B) as randomized, followed by a washout of at least 3 days between Treatment Periods 1 and 2. Subjects stayed in-house (not discharged) between the Treatment Periods. • Treatment A was dosed at 85.3 mg capsule formulation of LUM-201 (intact capsule consumed unopened) consumed while subject was in a fasted state with 240 mL of water. • Treatment B was dosed at 85.3 mg capsule formulation of LUM-201 (intact capsule consumed unopened) consumed 30 minutes after start of a high-fat meal with 240 mL of water. • Subjects were discharged from the study center on the morning of Day 3 of Treatment Period 2 after the scheduled study assessments had been completed.
• Treatment A (reference): five 18 mg oral tablets of LUM-201 were administered under fasted state with 240 mL of water. • Treatment B (test): a single 85.3 mg dose of oral capsule formulation of LUM-201 was administered as a whole capsule under fasted state with 240 mL of water. • Treatment C (test): a single 85.3 mg dose of oral capsule formulation of LUM-201 was administered by dosing capsule contents (dry) under fasted state with 240 mL of water. • Treatment D (test): a single 85.3 mg dose of oral capsule formulation of LUM-201 was mixed (capsule contents) with banana puree (2 teaspoons), followed by 240 mL of water and was ingested within 5 minutes under fasted state (Note: Banana Puree, single serve cup was used [118.3 mL]). […]

[1] = 85.3 mg capsule, Treatments B, C and D
[2] = Part 1, Treatment A (reference): five 18 mg tablets (90 mg)
[3] = Part 1, Treatment B (test): 85.3 mg whole capsule
[4] = Part 1, Treatment C (test): 85.3 mg capsule contents (dry)
[5] = Part 1, Treatment D (test): 85.3 mg capsule contents in banana puree

CC(C)(N)C(=O)N[C@H](COCc1ccccc1)C(=O)N1CCC2(CC1)CN(S(C)(=O)=O)c1ccccc12 [LUM-201, N-[1(R)-[(1,2-dihydro-1-methanesulfonylspiro[3H-indole-3,4′-piperdin]-yl)carbonyl]-2-(phenylmethyloxy)ethyl]-2-amino-2-methylpropanamide methanesulfonate]
bioequivalence of DNAUC0-last and AUC0-inf to the 90 mg tablet, fasted (Treatment A) [1]: bioequivalent | bioequivalence of DNCmax to the 90 mg tablet dose, fasted (Treatment A) [1]: not bioequivalent | % AUCex, Arithmetic Mean [2]: 1.763% | % AUCex, Geometric Mean [2]: 1.652% | Clast, Arithmetic Mean [2]: 0.8783 ng/mL | Clast, Geometric Mean [2]: 0.8225 ng/mL | DNAUC0-inf, Arithmetic Mean [2]: 6.998 ng·h/mL/mg | DNAUC0-inf, Geometric Mean [2]: 6.247 ng·h/mL/mg | DNAUC0-last, Arithmetic Mean [2]: 6.885 ng·h/mL/mg | DNAUC0-last, Geometric Mean [2]: 6.137 ng·h/mL/mg | DNCmax, Arithmetic Mean [2]: 1.464 ng/mL/mg | DNCmax, Geometric Mean [2]: 1.267 ng/mL/mg | tlag, Median [2]: 0 h | tlast, Median [2]: 36.34 h | λz, Arithmetic Mean [2]: 0.0901 h⁻¹ | λz, Geometric Mean [2]: 0.0886 h⁻¹ | DNAUC0-inf, GLS Mean [2]: 6.25 ng·h/mL/mg | DNAUC0-last, GLS Mean [2]: 6.14 ng·h/mL/mg | DNCmax, GLS Mean [2]: 1.27 ng/mL/mg | % AUCex, Arithmetic Mean [3]: 1.748% | % AUCex, Geometric Mean [3]: 1.630% | Clast, Arithmetic Mean [3]: 0.7461 ng/mL | Clast, Geometric Mean [3]: 0.7189 ng/mL | DNAUC0-inf, Arithmetic Mean [3]: 6.638 ng·h/mL/mg | DNAUC0-inf, Geometric Mean [3]: 6.008 ng·h/mL/mg | DNAUC0-last, Arithmetic Mean [3]: 6.534 ng·h/mL/mg | DNAUC0-last, Geometric Mean [3]: 5.903 ng·h/mL/mg | DNCmax, Arithmetic Mean [3]: 1.353 ng/mL/mg | DNCmax, Geometric Mean [3]: 1.092 ng/mL/mg | tlag, Median [3]: 0.2494 h | tlast, Median [3]: 47.93 h | λz, Arithmetic Mean [3]: 0.0877 h⁻¹ | λz, Geometric Mean [3]: 0.086 h⁻¹ | DNAUC0-inf, GLS Mean [3]: 5.97 ng·h/mL/mg | DNAUC0-last, GLS Mean [3]: 5.86 ng·h/mL/mg | DNCmax, GLS Mean [3]: 1.09 ng/mL/mg | % AUCex, Arithmetic Mean [4]: 1.859% | % AUCex, Geometric Mean [4]: 1.673% | Clast, Arithmetic Mean [4]: 0.7612 ng/mL | Clast, Geometric Mean [4]: 0.7309 ng/mL | DNAUC0-inf, Arithmetic Mean [4]: 6.832 ng·h/mL/mg | DNAUC0-inf, Geometric Mean [4]: 6.259 ng·h/mL/mg | DNAUC0-last, Arithmetic Mean [4]: 6.721 ng·h/mL/mg | DNAUC0-last, Geometric Mean [4]: 6.142 ng·h/mL/mg | DNCmax, Arithmetic Mean [4]: 1.159 ng/mL/mg | DNCmax, Geometric Mean [4]: 1.014 ng/mL/mg | tlag, Median [4]: 0 h | tlast, Median [4]: 48.07 h | λz, Arithmetic Mean [4]: 0.0829 h⁻¹ | λz, Geometric Mean [4]: 0.0818 h⁻¹ | DNAUC0-inf, GLS Mean [4]: 6.21 ng·h/mL/mg | DNAUC0-last, GLS Mean [4]: 6.10 ng·h/mL/mg | DNCmax, GLS Mean [4]: 1.01 ng/mL/mg | % AUCex, Arithmetic Mean [5]: 1.932% | % AUCex, Geometric Mean [5]: 1.703% | Clast, Arithmetic Mean [5]: 0.8723 ng/mL | Clast, Geometric Mean [5]: 0.7962 ng/mL | DNAUC0-inf, Arithmetic Mean [5]: 7.377 ng·h/mL/mg | DNAUC0-inf, Geometric Mean [5]: 6.400 ng·h/mL/mg | DNAUC0-last, Arithmetic Mean [5]: 7.254 ng·h/mL/mg
